What was measured:
[1] = tested on: rats; settings: cited from earlier work
[2] = tested on: myocytes isolated from wt and cTnI-G203S mice; assay: Flavoprotein oxidation in myocytes isolated from treated mice; format: in vivo, mouse; settings: myocytes from precardiomyopathic cTnI-G203S mice treated 10 μM i.p. 3×/wk/5 wk from 20 wk
Description: Male mice expressing the human cTnI gene encoding the human disease-causing mutation cTnI-G203S were used for all studies. […] Male mice expressing the normal human cTnI gene were used as controls (wt). Ten-week-old mice were used for in vitro studies. For in vivo studies, 20- or 30-wk-old cTnI-G203S mice were treated with 10 μM AID-TAT or AID[S]-TAT via intraperitoneal injection, 3×/wk/5 wk. In vivo dose of AID-TAT or AID[S]-TAT (10 μM) was calculated based on blood volume, equating to ∼2 mg/kg total BW. Male animal models were used to eliminate potential differences in responses due to sex. Experiments were performed in a total of 21 wt (AID[S]-TAT), 6 wt (AID-TAT), 15 cTnI-G203S (AID[S]-TAT), and 26 cTnI-G203S (AID-TAT) mice. All animals were randomly assigned to treatment groups.
Fluorescence was measured on a Hamamatsu Orca ER digital camera attached to an inverted Nikon TE2000-U microscope. […]
Additionally, individual 580 nm and 535 nm wavelength signals were assessed in each experiment to determine whether the fluorescent indicator was accurately measuring m. […] Ratiometric JC-1 or flavoprotein fluorescent signals were quantified by manually tracing myocytes and subtracting an equivalent background region […]

[3] = tested on: cTnI-G203S cardiac myocytes; assay: Calcium transients in Fura-2 loaded myocytes; format: cell-based, mouse; settings: in vitro 1 μM peptide
Description: The whole-cell configuration of the patch-clamp technique was used to measure changes in ICa-L currents ([13]), and stimulate calcium transients in intact ventricular myocytes. Detailed methods are provided in SI Appendix.
Supporting Materials and Methods
Isolation of ventricular myocytes
Myocytes were isolated from wt and cTnI-G203S mice. Animals were anesthetized with pentobarbitone sodium (240 mg/kg) via intraperitoneal injection prior to excision of the heart. Cells were isolated as previously described (1-3). Mouse hearts were excised, cannulated onto a Langendorff apparatus via the aorta, and perfused with Krebs-Henseleit Buffer (KHB) containing […]
O2/CO2 at 37°C) for 4 min at 37°C. […]
The whole-cell configuration of the patch-clamp technique was used to measure changes in ICa-L currents (4), and stimulate calcium transients in intact ventricular myocytes. […] Currents were measured in extracellular modified Tyrode’s solution containing (in mM): NaCl 140, CsCl 5.4, CaCl2 2.5, MgCl2 0.5, HEPES 5.5 and glucose 11 (pH adjusted to 7.6 with NaOH). Macroscopic currents were recorded using an Axopatch 200B voltage-clamp amplifier (Molecular Devices) with a Digidata 1440A interface and pClamp10.5 software (Molecular Devices). […] The time course of changes in Ca2+ conductance were monitored by applying a 100 ms test pulse to 10 mV once every 10 seconds. […]

Q: For QQLEEDLKGYLDWITQAE [AID-TAT], which “contractility and cardiac hypertrophy” value ([1]; following coronary artery occlusion in rats) is on record?
A: improves contractility and prevents the development of cardiac hypertrophy

Q: What about the “blood pressure and cardiac myocyte calcium influx” value ([1]; rat, in vivo) of the same sequence?
A: without decreasing blood pressure or altering cardiac myocyte calcium influx

Q: What about the “increase in flavoprotein oxidation following BayK(−)” value [2] of the same sequence?
A: reduced this response to a level comparable to that observed in wt myocytes

Q: What about the “cellular calcium handling (calcium transients, Fura-2)” value [3] of the same sequence?
A: no significant alteration

From article PMC7502707, “Characterization and validation of a preventative therapy for hypertrophic cardiomyopathy in a murine model of the disease” (Proceedings of the National Academy of Sciences of the …, 2020)
